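Cells were grown in 96-well plates and exposed to each compound for 48 hours at five concentrations; endpoints were interpolated linearly between bracketing concentrations, or set to the highest concentration if not reached. TGI is the concentration that stops growth completely.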
How the values were obtained:
Test in all cases: NCI-60 cell line screen, 48 h
ACHN renal = test system: ACHN renal
COLO 205 colon = test system: COLO 205 colon
HCT-15 colon = test system: HCT-15 colon
HL-60(TB) leukemia = test system: HL-60(TB) leukemia
HOP-92 NSCLC = test system: HOP-92 NSCLC
HT29 colon = test system: HT29 colon
IGROV1 ovarian = test system: IGROV1 ovarian
MOLT-4 leukemia = test system: MOLT-4 leukemia
NCI-H23 lung = test system: NCI-H23 lung
RPMI-8226 leukemia = test system: RPMI-8226 leukemia
SK-MEL-5 melanoma = test system: SK-MEL-5 melanoma
SK-OV-3 ovarian = test system: SK-OV-3 ovarian
SNB-75 CNS = test system: SNB-75 CNS
SR leukemia = test system: SR leukemia
U251 CNS = test system: U251 CNS
UO-31 renal = test system: UO-31 renal
A498 renal = test system: A498 renal

Row | Compound | TGI (ACHN renal) | TGI (COLO 205 colon) | TGI (HCT-15 colon) | TGI (HL-60(TB) leukemia) | TGI (HOP-92 NSCLC) | TGI (HT29 colon) | TGI (IGROV1 ovarian) | TGI (MOLT-4 leukemia) | TGI (NCI-H23 lung) | TGI (RPMI-8226 leukemia) | TGI (SK-MEL-5 melanoma) | TGI (SK-OV-3 ovarian) | TGI (SNB-75 CNS) | TGI (SR leukemia) | TGI (U251 CNS) | TGI (UO-31 renal) | TGI (A498 renal)
1 | Cc1ccc2[nH]c3c(C)c4c(c(C)c3c2c1)CN(C)C=C4 | 20.5 µM | 1.4 µM | 28.2 µM | 23.5 µM | 4.74 µM | 11.2 µM | 7.38 µM | > 40.6 µM | 2.3 µM | 35.5 µM | 2.94 µM | 7.04 µM | 2.27 µM | > 36.8 µM | 1.09 µM | 19.5 µM | –
2 | O=c1c(-c2ccccc2)c2oc(c1-c1ccccc1)CS(=O)(=O)CCC2 | > 100 µM | 42.1 µM | 32.9 µM | > 100 µM | > 100 µM | 75.8 µM | > 100 µM | > 100 µM | 38.9 µM | > 100 µM | 85 µM | > 100 µM | – | > 100 µM | – | – | –
3 | CC1CN(c2ccc(Cl)cc2)CC(C)(C)OC(=O)O1 (stereo not given) | > 100 µM | > 100 µM | > 100 µM | > 100 µM | > 100 µM | > 100 µM | > 100 µM | – | > 100 µM | > 100 µM | > 100 µM | > 100 µM | > 100 µM | > 100 µM | > 100 µM | > 100 µM | –
4 | COc1cc(OC)c2ssc3c(OC)cc(OC)c4ssc1c2-c43 | > 100 µM | > 100 µM | > 100 µM | – | – | > 100 µM | > 100 µM | > 100 µM | > 100 µM | – | > 100 µM | > 100 µM | > 100 µM | – | > 100 µM | – | > 100 µM
5 | O=C(CSc1nnc(Cc2ccccc2)o1)Nc1cccc(Cl)c1 | > 100 µM | > 100 µM | > 100 µM | > 100 µM | – | > 100 µM | > 100 µM | > 100 µM | > 100 µM | > 100 µM | > 100 µM | > 100 µM | 89.5 µM | – | > 100 µM | > 100 µM | > 100 µM
6 | CC(=O)NC(CCCCN(Cc1ccccc1)C(=O)NCCCl)C(=O)NCc1ccccc1 (stereo not given) | > 100 µM | > 100 µM | > 100 µM | > 100 µM | > 100 µM | > 100 µM | > 100 µM | > 100 µM | > 100 µM | > 100 µM | – | – | > 100 µM | > 100 µM | > 100 µM | > 100 µM | –
